Measurements as given in patent publication US9174998B2, “(6S,9aS)-N-benzyl-6-[(4-hydroxyphenyl)methyl]-4,7-dioxo-8-({6-[3-(piperazin-1-yl)azetidin-1-yl]pyridin-2-yl}methyl)-2-(prop-2-en-1-yl)-octahydro-1H-pyrazino[2,1-c][1,2,4]triazine-1-carboxamide compound” (Eisai R&D Management Co., Ltd., priority 2013, dated 2015).
pIC50: −log10 of the molar value. Values after ≈ are worked out from the molar mass of the structure shown. Where two headings read alike, the source gives them in different places.

Assays:
[1] = Evaluation of solubility (DMSO stock into PBS, HPLC-UV); format: physicochemical; conditions: Dulbecco's phosphate-buffered saline pH 7, room temperature, about 15 minutes shaking, values greater than 200 μM regarded as 200 μM, read-out: Test Example 3 solubility
Experimental: To 0.25 mL of a test solution a mentioned below was added 2.5 μL of a DMSO solution having a compound concentration of 20 mM. The resultant solution was shaken at room temperature for about 15 minutes (the conditions for the shaking are mentioned below). Subsequently, a supernatant was collected by a suction filtration under a reduced pressure. A DMSO solution having a compound concentration of 200 μM was used as a standard solution, and the concentration of a compound in a filtrate which was quantified by a HPLC-UV method was employed as a solubility (rounded off to the whole number). In this evaluation, since a value 200 μM became the upper limit operationally, all of quantification values greater than 200 μM were regarded as 200 μM.
Test solution: GIBCO (registered trade name) Dulbecco's phosphate-buffered saline (pH 7, Life Technologies Corporation)
Conditions for shaking: a microplate shaker N-704 (Nissinrika Corporation), speed 6

[2] = PAMPA test (parallel artificial membrane permeability assay); format: in vitro ADME; conditions: phosphate buffer pH 6.8, about 200 μM, about 5 hours, room temperature, read-out: Test Example 4 membrane permeation coefficient Pe
Experimental: A test solution (see below) was stirred while shaking at room temperature for about 5 hours using a 96-well PAMPA plate (BD Biosciences) in which a lipid had been precoated onto a polyvinylidene fluoride (PVDF) film to evaluate the membrane permeation coefficient Pe (cm/s) of each compound dissolved in the test solution (concentration: about 200 μM) upon the transport of the compound from a donor side to an acceptor side through a lipid membrane. The Pe value was calculated in accordance with equations 1 and 2, and the concentration of the compound on the donor side and the acceptor side was measured by a HPLC-UV method. In 0.3 mL of the test solution on the donor side is contained about 1% (v/v) of DMSO, since 3 μL of a DMSO solution containing the compound at a concentration of 20 mM was added to the test solution.
Test solution: a phosphate buffer solution having a pH value of 6.8 (90 mM of phosphate, 48 mM of NaCl, 5.4 mM of KCl)
Conditions for stirring: a multishaker MS-300 (AS ONE Corporation), 350 rpm
[formula] CD(t): compound concentration in donor well at time t CA(t): compound concentration in acceptor well at time t VD: donor well volume (0.3 mL) VA: acceptor well volume (0.2 mL) A: filter area (0.3 cm^2)

Wnt signal = experiment: Detection of Wnt signal (TOPglow luciferase reporter, LiCl-stimulated); format: cell-based; conditions: Homo sapiens; HEK293 clone carrying pNeo-TOP reporter; LiCl stimulation; luciferase luminescence; read-out: Test Example 1 IC50 (concentration required for inhibiting the Wnt signal activity by 50%)
Experimental: pcDNA3.1(+) (invitrogen) was cleaved with restriction enzymes BglII and NotI, and an adapter BEHKS having a sequence shown below (containing restriction enzyme sites BglII, EcoRI, HindIII, KpnI, SacI and NotI) was inserted thereinto, thereby producing a plasmid pNeo-HKS.
Subsequently, a fragment having a length of about 2700 bp (containing a Wnt-responsive sequence and a luciferase gene), which was prepared by cleaving from a TOPglow plasmid contained in a TOPglow/FOPglow TCF Reporter Kit (upstate Catalog#17-366) with restriction enzymes HindIII and KpnI, was inserted between HindIII and KpnI in pNeo-HKS, thereby producing a plasmid pNeo-TOP. The plasmid pNeo-TOP was introduced into human fetus-derived renal cell strain HEK293, then a compound was selected using G418, and then a cell clone strain was established by a limiting dilution method. The cell clone strain was subjected to a Wnt signal detection test.
The cell clone strain was subcultured in a D-MEM glucose-rich culture medium (Wako Pure Chemical Industries, Ltd.) containing 10% FBS, and cells in a growth phase were used in the test. Cells were collected using trypsin-EDTA, the number of the cells was counted, and then the cells were suspended in a D-MEM glucose-rich culture medium containing 10% FBS so that the number of cells became 2×10^5 cells/mL. The cell suspension was added to a 96-well cell culture plate (Greiner Bio-One Co., Ltd., product number: 655083) in an amount of 0.1 mL/well and then cultured overnight in a 5% CO2 incubator (37° C.). After the culturing, a substance to be tested, which was dissolved in DMSO, was diluted with a D-MEM glucose-rich culture medium containing 10% of FBS and 80 mM of LiCl to produce a sample solution. The sample solution (0.1 mL) was added to each well and then cultured in a 5% CO2 incubator (37° C.) […]. Six hours after the addition of the sample solution, a supernatant was removed from each well, and then 50 μL of Bright-Glo™ Luciferase substrate (Promega, product number: E2620) was added thereto. The plate was put on a plate mixer for several seconds, and then the emission of light from each well was measured using a EnVision™ Multilabel plate reader (PerkinElmer Co., Ltd.). The Wnt signal activation rate (%) of each well was determined, and a concentration (IC50) which is required for inhibiting the Wnt signal activity of a substance of interest by 50% was calculated, wherein the luminosity of a well to which a sample solution was not added and LiCl was added was defined as a 100% Wnt signal activity and the luminosity of a well to which either of a sample solution or LiCl was not added was defined as a 0% Wnt signal activity.

[3] = Evaluation of metabolic stability; format: in vitro ADME, human; conditions: 0.2 mg/mL HLM, 0.1 μM test substance, 15 minutes at 37° C., with vs without NADPH production
Experimental: A test substance was dissolved in DMSO so that the concentration of the resultant solution became 20 mM, and the solution was diluted with DMSO so that the concentration of the resultant solution became 1 mM. The metabolic stability of the test substance was evaluated using a human liver microsome (HLM) in which human liver was pooled. An assay buffer solution contained 0.2 mg/mL of HLM, a 0.1 M of phosphate potassium buffer solution (pH 7.4), 0.1 mM of EDTA, 0.33 mM of NADP+, 8 mM of glucose-6-phosphate, 0.1 U/mL of glucose-6-phosphate dehydrogenase, 6 mM of MgCl2, 0.1 μM of a test substance (final concentration in DMSO: 0.01%) in 0.15 mL of the final incubation volume. Fifteen minutes after the initiation of the reaction at 37° C., 0.15 mL of a acetonitrile/methanol mixed solution (7:3, by volume) was added to the solution to terminate the reaction. After centrifugation, the resultant supernatant was analyzed by LC-MSMS, peak areas were compared under the presence or absence of the production of NADPH, and the residual ratio of the test substance was calculated.

[4] = aqueous buffer, kinetic from dmso stock

solubility [1, 4] | Papp [2] | pIC50 (Wnt signal) | Test Example 2 residual ratio of the test substance [3] | solubility [1] | SMILES
195 µM (≈ 148 µg/mL) | 0.43 ×10⁻⁶ cm/s | 6.72 | 38% | – | C=CCN1CC(=O)N2[C@@H](Cc3c(F)cc(O)cc3F)C(=O)N(Cc3cccc(N4CC(N5CCN(CC)[C@H](C)C5)C4)n3)C[C@@H]2N1C(=O)NCc1ccccc1 [Example 23, (6S,9aS)-N-Benzyl-6-((2,6-difluoro-4-hydroxyphenyl)methyl)-8-((6-(3-((3R)-4-ethyl-3-methylpiperazin-1-yl)azetidin-1-yl)pyridin-2-yl)methyl)-4,7-dioxo-2-(prop-2-en-1-yl)-octahydro-1H-pyrazino[2,1-c][1,2,4]triazine-1-carboxamide]
198 µM (≈ 140 µg/mL) | 0.95 ×10⁻⁶ cm/s | 6.42 | 55% | – | C=CCN1CC(=O)N2[C@@H](Cc3ccc(O)cc3)C(=O)N(Cc3cccc(N4CC(N5CCN(C)[C@H](C)C5)C4)n3)C[C@@H]2N1C(=O)NCc1ccccc1 [Example 28, (6S,9aS)-N-Benzyl-8-((6-(3-((3R)-3,4-dimethylpiperazin-1-yl)azetidin-1-yl)pyridin-2-yl)methyl)-6-((4-hydroxyphenyl)methyl)-4,7-dioxo-2-(prop-2-en-1-yl)-octahydro-1H-pyrazino[2,1-c][1,2,4]triazine-1-carboxamide]
– | 1.18 ×10⁻⁶ cm/s | 7.09 | 39% | 200 µM (≈ 145 µg/mL) | C=CCN1CC(=O)N2[C@@H](Cc3ccc(O)cc3F)C(=O)N(Cc3cccc(N4CC(N5CCN(C)[C@H](C)C5)C4)n3)C[C@@H]2N1C(=O)NCc1ccccc1 [Example 5, (6S,9aS)-N-Benzyl-8-((6-(3-((3R)-3,4-dimethylpiperazin-1-yl)azetidin-1-yl)pyridin-2-yl)methyl)-6-((2-fluoro-4-hydroxyphenyl)methyl)-4,7-dioxo-2-(prop-2-en-1-yl)-octahydro-1H-pyrazino[2,1-c][1,2,4]triazine-1-carboxamide]
181 µM (≈ 137 µg/mL) | 2.25 ×10⁻⁶ cm/s | 6.89 | 22% | – | C=CCN1CC(=O)N2[C@@H](Cc3ccc(O)cc3F)C(=O)N(Cc3cccc(N4CC(N(C)CCN5CCOCC5)C4)n3)C[C@@H]2N1C(=O)NCc1ccccc1 [Reference Example 5, (6S,9aS)-N-Benzyl-6-((2-fluoro-4-hydroxyphenyl)methyl)-8-((6-(3-(methyl(2-(morpholin-4-yl)ethyl)amino)azetidin-1-yl)pyridin-2-yl)methyl)-4,7-dioxo-2-(prop-2-en-1-yl)-octahydro-1H-pyrazino[2,1-c][1,2,4]triazine-1-carboxamide]
193 µM (≈ 143 µg/mL) | 0.62 ×10⁻⁶ cm/s | 6.62 | 54% | – | C=CCN1CC(=O)N2[C@@H](Cc3ccc(O)cc3)C(=O)N(Cc3ccc(F)c(N4CC(N5CCC(N(C)C)CC5)C4)n3)C[C@@H]2N1C(=O)NCc1ccccc1 [Reference Example 1, (6S,9aS)-N-Benzyl-8-((6-(3-(4-(dimethylamino)piperidin-1-yl)azetidin-1-yl)-5-fluoropyridin-2-yl)methyl)-6-((4-hydroxyphenyl)methyl)-4,7-dioxo-2-(prop-2-en-1-yl)-octahydro-1H-pyrazino[2,1-c][1,2,4]triazine-1-carboxamide]
198 µM (≈ 152 µg/mL) | 0.68 ×10⁻⁶ cm/s | 6.82 | 34% | – | C=CCN1CC(=O)N2[C@@H](Cc3ccc(O)cc3F)C(=O)N(Cc3ccc(F)c(N4CC(N5C[C@@H]6C[C@H]5CN6C(C)C)C4)n3)C[C@@H]2N1C(=O)NCc1ccccc1 [Reference Example 4, (6S,9aS)-N-Benzyl-6-((2-fluoro-4-hydroxyphenyl)methyl)-8-((5-fluoro-6-(3-((1S,4S)-5-(propan-2-yl)-2,5-diazabicyclo[2.2.1]heptan-2-yl)azetidin-1-yl)pyridin-2-yl)methyl)-4,7-dioxo-2-(prop-2-en-1-yl)-octahydro-1H-pyrazino[2,1-c][1,2,4]triazine-1-carboxamide]
